Source: patent US12102651B1, “Solvent-based method for making nanocomposite pharmaceutical material” (Imam Abdulrahman Bin Faisal University, priority 2022, dated 2024)

Experiments:
[1] = tested on: human colorectal carcinoma (HCT-116) cells; assay: MTT cell viability assay on HCT-116 cells; type: cell-based
Procedure: (§1) Two cancer cell lines, namely, HCT-116 and HeLa were considered to study the impact of samples (medicinal nanocomposite) on viability and proliferation of such cell lines. A non-cancer cell line, embryonic kidney cells (HEK-293), was considered as a control cell line. HCT-116, HeLa and HEK-293 are collectively referred to as ‘the cells’ or individually as ‘the cell’ unless otherwise specified. The cells were cultured and maintained in the Dulbecco's Modified Eagle Media (DMEM), L-glutamine (5%), penicillin (1%), streptomycin (1%), Fetal bovine serum (FBS) (10%), and selenium chloride (1%). The cells were grown in 96 well plates in a 5% CO2 incubator (Thermo Fisher Scientific, Inc., Waltham, MA, USA) at 37° C., and 75-80% confluence cells and the cells processed for further assay.
A MTT assay is a colorimetric assay for measuring cell metabolic activity. […]
In control and nano formulation treated cells, MTT (5 mg/ml) was added, and the cells were further incubated in a CO2 incubator for 4 hours. Further, the cell culture media was replaced with dimethyl sulfoxide (DMSO) (1%), and the 96-well plate was further examined under an enzyme-linked immunoassay (ELISA) plate reader (Biotek Instruments, USA) at a wavelength of 570 nm. The percentage of cell viability was calculated for a statistical analysis. […]

[2] = tested on: human cervical cancer (HeLa) cells; assay: MTT cell viability assay on HeLa cells; type: cell-based; settings: for effect on HeLa cell viability, growth and proliferation (in words): 48 hours, 5.0 to 50 μg/ml
Procedure: as §1
A MTT assay is a colorimetric assay for measuring cell metabolic activity. The MTT assay is based on the ability of nicotinamide adenine dinucleotide phosphate (NADPH)-dependent cellular oxidoreductase enzymes to reduce the tetrazolium dye MTT to insoluble formazan, which has a purple colour. […] In control group, MSS, 1 wt. % Ag/MSS, 2 wt. % Ag/MSS, 4 wt. % Ag/MSS, 6 wt. % Ag/MSS, Ag-silicalite, and CP were […] and after 48 hours, the cells were incubated in MTT (Sigma-Aldrich, St. Louis, MO, USA) for 4 hours.
In control and nano formulation treated cells, MTT (5 mg/ml) was added, and the cells were further incubated in a CO2 incubator for 4 hours. Further, the cell culture media was replaced with dimethyl sulfoxide (DMSO) (1%), and the 96-well plate was further examined under an enzyme-linked immunoassay (ELISA) plate reader (Biotek Instruments, USA) at a wavelength of 570 nm. The percentage of cell viability was calculated for a statistical analysis. ANOVA were used to analyze the data. All the analysis was run on GraphPad Prism software. P value less than 0.05 was taken as significant difference in results.

HCT-116 cells = assay: Apoptotic DAPI staining assay on HCT-116 cells; type: cell-based, human; settings: HCT-116, 25 μg/ml, 48-hour treatment
Source text: DAPI is a fluorescent dye used to distinguish between live and dead cells. In live cells, the dye pass through a membrane less effectively. Therefore, the DAPI staining assay is an effective marker to identify the cell viability based on the cell structural changes. The morphology changes of cancer nuclear structure due to treatments of MSS, 1 wt. % Ag/MSS, 2 wt. % Ag/MSS, 4 wt. % Ag/MSS, 6 wt. % Ag/MSS, Ag-silicalite, and CP were examined by the DAPI staining assay. Cells were divided into two groups such as a control group and an experimental group. The control group was without nano formulation and CP treatments. In the experimental group, 1 wt. % Ag/MSS, 2 wt. % Ag/MSS, 4 wt. % Ag/MSS, 6 wt. % Ag/MSS, Ag-silicalite, and CP (25 μg/ml) were added.
Post 48-hour treatment, the control and experimental groups were exposed to ice-cold (4%) paraformaldehyde and further with Triton X-100 in the PBS solution. The cells were stained with DAPI (1.0 μg/ml) for 5 minutes under a dark environment, and the cells were finally washed with the PBS solution and cover slipped. A deoxyribonucleic acid (DNA) staining was examined by using confocal scanning microscope (Zeiss, Germany). The data presented as mean (±) standard deviation (SD) obtained from triplicates and one-way ANOVA followed by Dennett's post hoc test with GraphPad Prism Software (GraphPad Software, USA) for final statistical analysis.

[3] = tested on: Staphylococcus aureus ATCC25923; assay: Broth dilution MIC/MBC against Staphylococcus aureus; type: cell-based; settings: S. aureus, 24 h, 37° C.
Procedure: (§2) Bacterial strains of Pseudomonas aeruginosa ATCC27853 (gram-negative) and Staphylococcus aureus ATCC25923 (gram-positive) were subjected to antibacterial studies. The bacteria were sub-cultured and maintained on Mueller Hinton Agar (MHA). A stock solution of the nanomaterial (8 mg/ml) was sonicated for 10 minutes in Mueller Hinton Broth (MHB) to obtain a homogenized solution for an antibacterial assay. Inoculum was prepared by adjusting the cell number to 1.5×10^8 colony forming unit per milliliter (CFU per ml) by using freshly grown strains, grown overnight at 37° C. […] About 100 μL of adjusted inoculum was inoculated into each tube and were further incubated for 24 h (at 37° C.) with agitation of 120 rotations per minute (rpm). A control tube of bacteria, also referred as control, had no nanomaterial. 10 μL extracted from the tubes were put on prepared MHA plates and further incubated at the same conditions. After the completion of incubation duration, the MHA plates were recorded for MIC and MBC values. MIC was taken as the lowest concentration of nanomaterial that inhibited 90% of the bacterial growth. However, MBC was recorded as the lowest concentration that killed the bacterial cells or had CFU less than three. […]

[4] = tested on: Pseudomonas aeruginosa ATCC27853; assay: Broth dilution MIC/MBC against Pseudomonas aeruginosa; type: cell-based; settings: P. aeruginosa, 24 h, 37° C.
Procedure: as §2

Compound: N.N.[Cl][Pt][Cl] [CP, cisplatin]
- effect on HCT-116 cell viability, growth and proliferation (in words) ([1]; 48 hours, 5.0 to 50 μg/ml): dose-dependent inhibitory action
- inhibitory concentration (IC50) ([1]; HCT-116 cells, 48 hours treatment): 13 µg/mL
- effect on HeLa cell viability, growth and proliferation (in words) [2]: dose-dependent inhibitory action
- effect on HeLa cell viability, growth and proliferation (in words) ([2]; listed as cisplatin): significant decrease
- inhibitory concentration (IC50) ([2]; HeLa cells, 48 hours treatment): 13 µg/mL
- number of DAPI stained colon cancer cells versus control (in words) (HCT-116 cells): significant decrease in the number of colon cancer cells

Compound: O=[N+]([O-])[O-].[Ag+] [AgNO3, Silver nitrate]
- antibacterial activity, MIC/MBC (in words) [3]: showed effectiveness
- antibacterial activity, MIC/MBC (in words) [4]: showed effectiveness
